In patent US4593119A, “Method for treatment or prophylaxis of cardiac disorders” (American Hospital Supply Corporation, priority 1982, dated 1986):
Where a name gives a salt, the structure may show the parent alone. Read-outs that look alike come from different tables or passages of the source.

Assays:
[1] = molecular target: T1, β-adrenergic receptors, guinea pig tracheal strips (Cavia porcellus, UniProt Q8K4Z4); experiment: β-blocking activity in vitro, guinea pig tracheal strips (tension response to isoproterenol); type: cell-based; conditions: for pA2 Trachea: pA2 = -log KB, vs isoproterenol, 60-minute incubation, tracheal tension; for Kb: read-out: pA2 Trachea (converted)
T1 construct: Spiral strips of guinea pig trachea; from tissue; host or cells: guinea pig trachea, spiral strips
T1 sequence (Q8K4Z4 whole entry): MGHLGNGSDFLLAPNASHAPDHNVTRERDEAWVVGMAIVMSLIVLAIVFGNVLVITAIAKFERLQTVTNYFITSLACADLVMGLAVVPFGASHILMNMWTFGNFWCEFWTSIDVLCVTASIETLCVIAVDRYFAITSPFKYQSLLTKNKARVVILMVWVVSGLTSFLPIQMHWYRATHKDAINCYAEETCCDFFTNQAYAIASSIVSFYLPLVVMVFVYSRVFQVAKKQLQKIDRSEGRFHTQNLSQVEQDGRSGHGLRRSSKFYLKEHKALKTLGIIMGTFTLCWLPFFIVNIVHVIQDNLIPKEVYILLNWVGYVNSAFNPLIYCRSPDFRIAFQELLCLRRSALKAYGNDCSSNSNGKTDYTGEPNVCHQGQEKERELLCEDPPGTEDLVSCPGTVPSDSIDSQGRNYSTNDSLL
Procedure: (§1) Each tissue was suspended between a fixed glass rod and a Statham Universal Transducer connected to a Beckman recorder. Atria were allowed to beat spontaneously under a loading tension of approximately 0.5 g. Changes in rate of response to isoproterenol, a standard β-receptor agonist, were measured in the absence and presence of test compounds. Spiral strips of guinea pig trachea were suspended under 5 g resting tension and incubated with phentolamine, tropolone, and cocaine. Active tension was generated by addition of carbachol (3.0×10^-7 M) and decreases in tension in response to isoproterenol were quantitated. Cumulative concentration response curves were produced with isoproterenol both before and after 60-minute incubation of test compounds with atria and trachea. Compounds with β-blocking activitiy shifted concentration response curves to the right. […] The degree of cardioselectivity was estimated from the ratio KB trachea/KB atria 10(pA2 Atria -pA^2 Trachea). A ratio greater than one indicates cardioselectivity. […]

[2] = tested on: β-adrenergic receptors, guinea pig right atria; experiment: β-blocking activity in vitro, guinea pig right atria (rate response to isoproterenol); type: cell-based
Procedure: as §1

[3] = tested on: beta-receptor mediated tachycardia (dog heart rate); experiment: beta-blockade in vivo in pentobarbital-anesthetized dogs, 40-minute infusion, inhibition of heart rate response to isoproterenol and recovery
Procedure: (§2) The duration of beta-blockage was determined in vivo using pentobarbital-anesthetized dogs instrumented for measurement of heart rate using a Beckman cardiotachometer triggered electronically by a phasic aortic blood pressure signal. Both vagus nerves were severed in the cervical region and the animals were mechanically ventilated. Two experimental designs were used. The first employed a 40-minute infusion of test compound and the second used a 3-hour infusion of test compound. In the 40-minute model, isoproterenol was infused into a foreleg vein at the rate of […] to induce a beta-receptor mediated tachcardia. Various doses of test compound were then infused into a femoral vein over a period of 40 minutes. This infusion was then terminated and recovery from blockade was quantitated. […] This cumulative dose is expressed as mg/kg and is an indication of potency. The time period required for 80% recovery of heart rate for each dose of test drug was also measured to quantitate duration of action. […] Test compound were dissolved in 0.9% NaCl and infused at a rate of 0.05 ml/Mg/min or less. In the 3-hour infusion model, bolus doses of isoproterenol ([…]) were used to assess the degree of beta-blockade and recovery from beta-blockage after termination of the infusion. The doses were spaced at 10-minute intervals and were given before, during and following the infusion of test compounds. The infusion rate was adjusted so that the end of the 3-hour infusion period the degree of isoproterenol inhibition averaged about 50% of control.

[4] = disappearance in vitro in dog whole blood; type: in vitro ADME; conditions: 37° C., 50 μg test compound, read-out: T1/2 Dog Blood
Procedure: (§3) The rate of disappearance of a compound is expressed as the half-life (T1/2), which is the time period in which one-half of the initial amount of compound tested disappears. […] At the designated time periods, the test mixtures were removed from the incubator and transferred to a 0° C. ice bath. Acetonitrile (2 mL) was immediately added, and the mixtures were mixed to stop enzymatic hydrolysis. Zero time samples were prepared by adding 2 mL of acetonitrile to denature the proteins prior to addition of the test compounds. […] The half-life of each test compound was determined graphically by plotting the decrease in concentration as a function of time.

[5] = disappearance in vitro in human whole blood; type: in vitro ADME; conditions: 37° C., 50 μg test compound, read-out: T1/2 Human Blood
Procedure: as §3

[6] = disappearance in vitro in dog liver homogenate; type: in vitro ADME; conditions: 33% (w/v) dog liver homogenate, 37° C., 50 μg test compound; read-out: T1/2 Dog Liver
Procedure: as §3

[7] = tested on: heart rate response to isoproterenol (dog); experiment: beta-blockade in vivo in pentobarbital-anesthetized dogs, 3-hour infusion, inhibition of heart rate response to isoproterenol and recovery; conditions: 80% recovery after 3-hour infusion
Procedure: as §2

[8] = molecular target: β-adrenergic receptors, guinea pig right atria (Cavia porcellus, UniProt H0W3H1); experiment: β-blocking activity in vitro, guinea pig right atria (rate response to isoproterenol); type: cell-based; conditions: read-out: pA2 Atria (converted)
Sequence of β-adrenergic receptors, guinea pig right atria (Cavia porcellus, UniProt H0W3H1) (H0W3H1 1-470): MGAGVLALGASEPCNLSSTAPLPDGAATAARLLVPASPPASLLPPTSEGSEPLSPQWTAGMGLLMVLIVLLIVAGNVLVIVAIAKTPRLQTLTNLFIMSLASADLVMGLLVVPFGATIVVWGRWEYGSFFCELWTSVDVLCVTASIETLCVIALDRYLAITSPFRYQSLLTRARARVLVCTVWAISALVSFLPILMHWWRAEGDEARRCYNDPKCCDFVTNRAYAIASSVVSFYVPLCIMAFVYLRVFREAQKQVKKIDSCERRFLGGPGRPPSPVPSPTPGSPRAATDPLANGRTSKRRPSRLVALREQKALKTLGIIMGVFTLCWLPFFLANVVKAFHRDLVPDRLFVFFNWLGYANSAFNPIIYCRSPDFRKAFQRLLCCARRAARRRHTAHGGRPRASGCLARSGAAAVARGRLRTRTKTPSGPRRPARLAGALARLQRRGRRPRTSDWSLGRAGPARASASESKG
Procedure: as §1

[9] = ratio KB trachea/KB atria, greater than one indicates cardioselectivity
[10] = Canis lupus familiaris, iv, 40 min; read-out: Potency mg/kg/40 min
[11] = time for 80% recovery of heart rate after 40-minute i.v. infusion, dogs; in min

Compound	half-life [4]	half-life [5]	half-life [6]	pA2 Trachea [1]	Cardioselectivity [2, 9]	ED50 [3, 10]	80% Recovery Time [3, 11]	80% Recovery Time ([7]; in min)	further results
COC(=O)c1ccc(OCC(O)CNC(C)C)cc1.Cl (stereo not shown) [Example I, Methyl 4-[2-Hydroxy 3-(isopropylamino)propoxy]benzoate Hydrochloride]	60 min	> 60 min	> 180 min	5.5	19	3.7 ± 1.3 mg/kg	34 ± 11		
COC(=O)CCc1ccc(OCC(O)CNC(C)C)cc1.Cl (stereo not shown) [Example IV, Methyl 3-[4-[2-Hydroxy-3-(isopropylamino)propoxy]-phenyl]propionate Hydrochloride]	41 min	44 min	< 5 min		30	1.35 ± 0.52 mg/kg	12 ± 2	12 ± 3	Kb [1]: 2510 nM
COC(=O)c1ccccc1OCC(O)CNC(C)C (stereo not shown) [Example IX, Methyl 2-[2-Hydroxy-3-(isopropylamino)propoxy]benzoate]	38 min	7 min	19 min	7.9	2	0.176 ± 0.02 mg/kg	15 ± 2	15 ± 2	Kb [8]: 6.31 nM
COC(=O)c1ccccc1OCC(O)CNCCc1ccc(OC)c(OC)c1.O=C(O)C(=O)O (stereo not shown) [Example XI, Methyl 2-[2-Hydroxy-3-(3,4-dimethoxyphenethylamino)propoxy]benzoate Oxalate]	120 min	8 min	3 min	7.1	16			30 ± 4	
C=CCOC(=O)c1ccc(OCC(O)CNC(C)C)cc1 (stereo not shown) [Example XIV, 3-Propenyl 4-[2-Hydroxy-3-(isopropylamino)propoxy]benzoate]					4				Kb [1]: 2000 nM; Kb [8]: 501 nM
C=CCOC(=O)c1ccccc1OCC(O)CNC(C)C (stereo not shown) [Example XVI]					1			36 ± 5	Kb [1]: 12.6 nM; Kb [8]: 12.6 nM
C=CCOC(=O)c1cccc(OCC(O)CNC(C)C)c1 (stereo not shown) [Example XV]									Kb [1]: 63.1 nM; Cardioselectivity [2]: 2; Kb [8]: 126 nM; 80% Recovery Time [7]: > 60 min
CCOC(=O)c1ccc(OCC(O)CNC(C)C)cc1.Cl (stereo not shown) [II, Ethyl 4-[2-Hydroxy-3-(isopropylamino)propoxy]benzoate Hydrochloride]	60 min	> 60 min		6.1	2.5	5.7 ± 1.6 mg/kg	56 ± 6		
COC(=O)Cc1ccc(OCC(O)CNC(C)C)cc1.Cl (stereo not shown) [III, Methyl 4-[2-Hydroxy-3-(isopropylamino)propoxy]phenylacetate hydrochloride]	60 min	2 min	5 min	5.4		2.3 ± 0.6 mg/kg	20 ± 5		
CC(=O)Nc1ccc(OCC(O)CNC(C)C)cc1 (stereo not shown) [Practolol, reference compound]									80% Recovery Time ([3]; time for 80% recovery of heart rate after 40-minute i.v. infusion, dogs): 61 min; 80% Recovery Time [7]: > 60 min
CC(C)NCC(O)COc1cccc2ccccc12 (stereo not shown) [Propranolol, reference compound]									ED50 ([3]; Canis lupus familiaris, iv, 40 min, read-out: Potency mg/kg/40 min): 0.06 ± 0.01 mg/kg; 80% Recovery Time ([3]; iv, 40 min): 42 ± 9
COC(=O)c1ccc(OCC(O)CNC(C)(C)C)cc1 (stereo not shown) [VIII, Methyl 4-[2-Hydroxy-3-(t-butylamino)propoxy]benzoate]				5.4					Cardioselectivity [2]: 32
COC(=O)CCc1ccc(OCC(O)CNC(C)(C)C)cc1 (stereo not shown) [V]				5.9	4	4.5 ± 1.5 mg/kg	7 ± 2	15 ± 3	
CCCOC(=O)CCc1ccc(OCC(O)CNC(C)C)cc1.Cl (stereo not shown) [XII, n-Propyl 3-[4-[2-Hydroxy-3-(isopropylamino)propoxy]phenyl]propionate Hydrochloride]				5.2	1.6				

Further lines, with some results ahead:

half-life [4]	half-life [5]	half-life [6]	Compound	pA2 Trachea [1]	Cardioselectivity [2, 9]	ED50 [3, 10]	80% Recovery Time [3, 11]	80% Recovery Time ([7]; in min)	further results
17 min	7 min	5 min	COC(=O)c1ccccc1OCC(O)CNC(C)(C)C (stereo not shown) [Example X, Methyl 2-[2-Hydroxy-3-(t-butylamino)propoxy]benzoate Hydrochloride Hemihydrate]			0.14 ± 0.04 mg/kg	12 ± 1	22 ± 5	
13 min	44 min	2 min	COC(=O)CCc1ccc(OCC(O)CNCCc2ccc(OC)c(OC)c2)cc1 (stereo not shown) [VI]	5.2				14 ± 3	Cardioselectivity [2]: 20
120 min	11 min	< 2.5 min	COC(=O)CCc1ccccc1OCC(O)CNC(C)C (stereo not shown) [XIII]					29 ± 6	
